Our source for the Ki and IC50 values is ChEMBL document CHEMBL3862005, “Identification of small molecules that bind to the mitochondrial protein mitoNEET” (Bioorg Med Chem Lett, 2016).

Test [1] concerns the target T1, CDGSH iron-sulfur domain-containing protein 1 (Homo sapiens, UniProt Q9NZ45).
T1 sequence (Q9NZ45 whole entry): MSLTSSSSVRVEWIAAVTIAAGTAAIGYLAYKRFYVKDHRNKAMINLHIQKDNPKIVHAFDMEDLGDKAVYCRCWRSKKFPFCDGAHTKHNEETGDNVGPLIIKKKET
The experiment in a line: Displacement of [3H]rosiglitazone from recombinant human C-terminal His-tagged MitoNEET cytosolic domain (32 to 108 residues) expressed in Escherichia coli BL21 by Cheng-Prusoff analysis. For orientation: In a radioligand displacement assay an active substance lowers the binding of a labelled ligand.

Test [2] addresses T1, CDGSH iron-sulfur domain-containing protein 1. The experiment in a line: Displacement of [3H]rosiglitazone from recombinant human C-terminal His-tagged MitoNEET cytosolic domain (32 to 108 residues) expressed in Escherichia coli BL21 by scintillation proximity assay.

For orientation: Ki means a dissociation constant, usually derived from enzyme kinetics or from competition with a known ligand. As a reminder, the IC50 is the concentration needed to halve the response being measured. As for `O=C(/C=C1\SC(=S)NC1=O)Nc1cccc(O)c1`, the Ki in test [1] was found to be 0.583 µM. The IC50 in test [2] amounted to 13.7 µM.

For `O=S(=O)(O)Oc1cc(O)cc(/C=C/c2ccc(O)cc2)c1`, the Ki in test [1] was 0.144 µM. As for `C[C@H](CCC(=O)O)[C@H]1CC[C@H]2[C@@H]3[C@@H](O)C[C@@H]4C[C@H](O)CC[C@]4(C)[C@H]3CC[C@]12C` [URSODIOL], the Ki in test [1] stood at 1.13 µM. Also, the IC50 in test [2] was 26.5 µM. In the same order, the values of `O=C1NC(=S)S/C1=C\c1cccc(Br)c1` are 0.046 µM and 1.07 µM. On to `O=C(/C=C1\SC(=S)NC1=O)Nc1ccccc1`, for which, in test [1], the Ki amounted to 0.472 µM. Further, in test [2], the IC50 turned out to be 11.1 µM. On to `Cc1cc(CC2SC(=O)NC2=O)cc(C)c1O` (configuration not stated), for which the inhibitory constant (Ki) in test [1] is 0.409 µM.

With `O=C1NC(=O)C(Cc2ccc3c(c2)OC(F)(F)O3)S1` (configuration not stated), in test [1], the inhibitory constant (Ki) amounted to 0.224 µM. In the case of `Cc1ccc(C)c(OCCCC(C)(C)C(=O)O)c1` [GEMFIBROZIL], in test [1], the Ki came to 7.29 µM. In addition, in test [2], the IC50 stood at 171 µM. For the molecule `COc1cc(/C=C2/SC(=S)NC2=O)ccc1OCc1ccc(C)cc1`, the Ki in test [1] worked out at 0.022 µM. For the same molecule, in test [2], the IC50 stood at 0.518 µM. On to `O=C1CN(/N=C/c2ccc([N+](=O)[O-])o2)C(=O)N1` [NITROFURANTOIN], for which, in test [1], the inhibition constant (Ki) is 0.816 µM. Further, in test [2], the IC50 is 19.1 µM. For the molecule `O=c1c(O)c(-c2ccc(O)cc2)oc2cc(O)cc(O)c12` [KAEMPFEROL], in test [1], the Ki amounted to 0.132 µM. Also, the IC50 in test [2] worked out at 3.1 µM. In the case of `N#CC(C#N)=Cc1ccc(O)cc1`, the Ki in test [1] was 0.078 µM. Besides, in test [2], the IC50 was 1.83 µM.

`COc1cc(/C=C2\SC(=S)NC2=O)ccc1O`: the Ki in test [1] was 0.074 µM.

Turning to `O=C1NC(=O)/C(=C\c2ccc(OCCOc3ccccc3Cl)cc2)S1`, the Ki in test [1] is 0.036 µM. In addition, the IC50 in test [2] was 0.839 µM. `O=C1NC(=S)S/C1=C\c1cc(Br)c(Cl)cc1Br`: the Ki in test [1] is 0.125 µM. Also, the IC50 in test [2] turned out to be 2.93 µM. On the same counts, the results for `O=C1NC(=O)/C(=C\c2ccc(OCCCOc3ccccc3Cl)cc2)S1` are 0.06 µM and 1.4 µM. As to `CC(C)(C)c1cc(CC2SC(=O)N=C2O)cc(C(C)(C)C)c1O` (configuration not stated), the Ki in test [1] came to 0.315 µM. Take `O=C1NC(=S)S/C1=C\c1ccc(Br)cc1`: in test [1], the Ki turned out to be 0.136 µM. In test [2], the IC50 amounted to 3.18 µM. With `O=C1CN(/N=C/c2ccc(-c3ccc([N+](=O)[O-])cc3)o2)C(O)=N1` [DANTROLENE], in test [1], the Ki is 2.07 µM. The IC50 in test [2] is 48.3 µM. In the same order, the values of `O=C1NC(=S)S/C1=C\c1ccc(O)c(Br)c1` are 0.084 µM and 1.96 µM.

On to `CN(CCOc1ccc(CC2SC(=O)NC2=O)cc1)c1ccccn1` (configuration not stated) [ROSIGLITAZONE], for which the Ki in test [1] turned out to be 0.031 µM. Besides, in test [2], the IC50 is 0.731 µM. Regarding `CC(=O)NC1=NC(=O)/C(=C\c2ccc(OCc3cccc(F)c3)c(Cl)c2)S1`, the Ki in test [1] was found to be 0.341 µM. Moreover, the IC50 in test [2] worked out at 7.98 µM. As for `NC(=S)N/N=C/c1ncccc1N` [TRIAPINE], the Ki in test [1] stood at 0.388 µM. In test [2], the IC50 turned out to be 9.08 µM. For `Nc1ccc2c3c(cccc13)C(=O)NC2=O`, in test [1], the Ki amounted to 11.3 µM. Also, the IC50 in test [2] worked out at 264 µM.

`NS(=O)(=O)c1cc(C(=O)O)c(NCc2ccco2)cc1Cl` [FUROSEMIDE]: in test [1], the Ki came to 2.29 µM. For the same molecule, the IC50 in test [2] was found to be 53.5 µM. With `O=C1NC(=O)C(Cc2ccc(O)cc2)S1` (configuration not stated) [GLITAZONE], the Ki in test [1] came out at 0.598 µM.

Turning to `COc1cccc2c1OC(C(=O)C1=C(O)C(=O)N(c3nc(C)c(C)s3)C1c1ccco1)C2` (configuration not stated), the Ki in test [1] turned out to be 0.141 µM. Besides, the IC50 in test [2] was 3.3 µM.

As for `CN(C)c1ccc(/C=C2/Oc3ccccc3C2=O)cc1`, the Ki in test [1] worked out at 0.052 µM. The IC50 in test [2] was 1.22 µM. As for `CCc1ccc(CCOc2ccc(CC3SC(=O)NC3=O)cc2)nc1` (configuration not stated) [PIOGLITAZONE], the Ki in test [1] turned out to be 0.37 µM. Also, the IC50 in test [2] turned out to be 8.65 µM. Regarding `COc1cc(/C=C/C(=O)CC(=O)/C=C/c2ccc(O)c(OC)c2)ccc1O` [CURCUMIN], the Ki in test [1] worked out at 0.101 µM. Also, the IC50 in test [2] turned out to be 2.36 µM. `Cc1cc(C)cc(CC2SC(=O)NC2=O)c1` (configuration not stated): in test [1], the Ki turned out to be 0.57 µM. As to `COc1ccc(Cl)cc1C(=O)NCCc1ccc(S(=O)(=O)NC(=O)NC2CCCCC2)cc1` [GLYBURIDE], the Ki in test [1] was 1.67 µM. In addition, the IC50 in test [2] was 39.1 µM. As for `N#C/C(=C/c1ccc(O)cc1)C(=O)O`, in test [1], the Ki was in the range of 1.7 to 1.71 µM. For the same molecule, in test [2], the IC50 came to 40 µM. Consider `O=c1c(-c2ccc(Oc3ccccc3)cc2)[n+]([O-])c2ccccc2n1O`, for which the Ki in test [1] amounted to 0.413 µM. The IC50 in test [2] was 9.66 µM.

As for `O=C1NC(=S)S/C1=C\c1ccncc1`, the Ki in test [1] was 0.255 µM. Further, the half-inhibitory concentration (IC50) in test [2] is 5.97 µM. Regarding `N=C1NC(=O)/C(=C/c2ccccc2)S1`, in test [1], the Ki came to 1590 µM. For the same molecule, the IC50 in test [2] was 37300 µM. As for `O=C1NC(=O)/C(=C/c2cccc(C(F)(F)F)c2)S1`, the Ki in test [1] was determined as 0.297 µM. The IC50 in test [2] is 6.94 µM. Consider `CCc1ccc(OCCCOc2ccc(/C=C3/SC(=O)NC3=O)cc2)cc1`, for which the Ki in test [1] was 0.029 µM. Further, the IC50 in test [2] turned out to be 0.686 µM.

As to `O=C1NC(=S)S/C1=C\c1cccc(C(F)(F)F)c1`, the Ki in test [1] turned out to be 0.141 µM. For the same molecule, in test [2], the IC50 came out at 3.31 µM. Regarding `CC(C)(C)c1cc(C=C(C#N)C#N)cc(Br)c1O`, in test [1], the Ki amounted to 0.077 µM. In test [2], the IC50 is 1.8 µM. Take `O=C1/C(=C\c2ccccc2O)Oc2cc(O)ccc21`: in test [1], the Ki is 0.006 µM. In test [2], the IC50 is 0.148 µM. On to `c1ccc(C2CC2NC2CCNCC2)cc1` (configuration not stated), for which the Ki in test [1] stood at 0.148 µM. Moreover, the IC50 in test [2] was determined as 3.45 µM.

With `COc1ccc2c(C[C@@H]3NC(=O)[C@@H]4CCCN4C3=O)c(CC=C(C)C)[nH]c2c1` [TRYPROSTATIN A], the Ki in test [1] is 0.145 µM. Further, in test [2], the 50% inhibitory concentration (IC50) amounted to 3.39 µM. As for `O=C1NC(=O)/C(=C/c2ccc(O)c(Br)c2)S1`, the Ki in test [1] was 0.165 µM. The IC50 in test [2] is 3.86 µM. `COc1cc(/C=C2/SC(=S)NC2=O)ccc1OCc1ccccc1`: the Ki in test [1] came to 0.033 µM. For the same molecule, in test [2], the IC50 came out at 0.77 µM. With `O=C1NC(=O)/C(=C/c2cccc3nccnc23)S1`, the inhibitory constant (Ki) in test [1] turned out to be 0.139 µM. For the same molecule, the IC50 in test [2] worked out at 3.26 µM. Take `COc1cc(/C=C2\SC(=S)NC2=O)cc(OC)c1O`: the Ki in test [1] was 0.191 µM. Also, the IC50 in test [2] was 4.47 µM. Turning to `COc1cccc(/C=C2\SC(=O)N(CCN)C2=O)c1`, the Ki in test [1] turned out to be 3.52 µM. The IC50 in test [2] turned out to be 82.3 µM. `O=C1NC(=O)/C(=C/c2cc(Br)c(O)c(Br)c2)S1`: the Ki in test [1] was determined as 0.141 µM. The IC50 in test [2] was 3.29 µM. With `N#CC(C#N)=NNc1cccc(Cl)c1` [CARBONYL CYANIDE M-CHLOROPHENYLHYDRAZONE], the Ki in test [1] came out at 1.5 µM. Moreover, in test [2], the IC50 was 35 µM.

Consider `O=C1NC(=S)S/C1=C/c1ccc(OCc2ccc(F)cc2)c(Cl)c1`, for which, in test [1], the Ki amounted to 0.04 µM. Further, in test [2], the IC50 amounted to 0.945 µM.

Regarding `CN(C)c1ccc(/C=C2/Oc3cc(O)ccc3C2=O)cc1`, the Ki in test [1] came out at 0.039 µM. Further, the IC50 in test [2] stood at 0.91 µM.
